Data as given in BindingDB's records for doi:10.7270/Q2R78CQV (Burnham Center For Chemical Genomics, 2011).

Target: Hexokinase HKDC1 [W721R] (Homo sapiens, UniProt Q2TB90, W721R)
Experiment: activation of HKDC1 glucose phosphorylation – biochemical, W721R variant, dose response (AID 504730)

Chain of Hexokinase HKDC1 [W721R] (Q2TB90 whole entry W721R): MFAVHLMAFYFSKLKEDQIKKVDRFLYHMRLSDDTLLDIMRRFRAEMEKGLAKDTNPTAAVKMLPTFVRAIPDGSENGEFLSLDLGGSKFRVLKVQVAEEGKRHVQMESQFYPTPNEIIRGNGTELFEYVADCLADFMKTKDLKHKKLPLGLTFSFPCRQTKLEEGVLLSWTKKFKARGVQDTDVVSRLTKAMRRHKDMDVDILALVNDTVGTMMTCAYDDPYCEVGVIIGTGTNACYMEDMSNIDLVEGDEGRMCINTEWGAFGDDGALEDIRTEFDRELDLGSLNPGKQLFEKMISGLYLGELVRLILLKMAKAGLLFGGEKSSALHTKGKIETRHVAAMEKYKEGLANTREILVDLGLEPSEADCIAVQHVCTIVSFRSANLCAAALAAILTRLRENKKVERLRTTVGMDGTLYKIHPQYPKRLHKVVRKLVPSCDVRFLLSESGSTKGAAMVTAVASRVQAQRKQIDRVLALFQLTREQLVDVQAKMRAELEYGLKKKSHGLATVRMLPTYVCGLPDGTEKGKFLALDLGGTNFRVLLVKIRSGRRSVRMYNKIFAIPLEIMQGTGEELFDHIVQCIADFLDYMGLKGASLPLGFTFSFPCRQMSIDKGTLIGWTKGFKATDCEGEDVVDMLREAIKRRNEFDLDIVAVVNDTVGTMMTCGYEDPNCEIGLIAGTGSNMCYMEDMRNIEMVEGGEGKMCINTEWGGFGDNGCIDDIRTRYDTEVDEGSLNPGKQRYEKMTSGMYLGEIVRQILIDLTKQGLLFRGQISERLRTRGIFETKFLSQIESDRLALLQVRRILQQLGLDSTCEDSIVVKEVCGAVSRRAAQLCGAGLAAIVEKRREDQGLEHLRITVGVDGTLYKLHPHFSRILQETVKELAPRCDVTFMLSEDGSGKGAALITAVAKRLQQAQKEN

| EC50 [µM] | Compound |
| --- | --- |
| > 80 | Nn1cnnc1N=NCc1cc(Br)cc(Br)c1O |
| 2.24 | CC(N=Nc1nc2ccccc2o1)c1cc2ccccc2cn1 (centres undefined) |
| 9.25 | Oc1c(Cl)c(N=Cc2cccnc2)c(O)c2ccccc12 [MLS001195521] |
| > 80 | COCc1cc(C2C(C(=O)c3ccco3)C(=O)C(=O)N2CCOCCO)ccc1O (centres undefined) [3-(furan-2-carbonyl)-4-hydroxy-1-[2-(2-hydroxyethoxy)ethyl]-2-[4-hydroxy-3-(methoxymethyl)phenyl]-2H-pyrrol-5-one] |
| 51.6 | CC(=O)Oc1cccc2c(O)c3c(c(O)c12)CC=CC3OC(C)=O (centres undefined) [SMR001574207] |
| 24.7 | O=C1C(=C2C(=O)c3ccccc3C2=O)Nc2ccccc21 [MLS000071738] |
| 19.9 | CC(C)(C)c1nnc(N=NCc2cc(Br)ccc2O)n(N)c1=O [4-azanyl-3-[2-[(E)-(3-bromanyl-6-oxidanylidene-cyclohexa-2,4-dien-1-ylidene)methyl]hydrazinyl]-6-tert-butyl-1,2,4-triazin-5-one] |
| 26.5 | CCCOC1=CC(=O)C(C=NNC(=S)Nc2ccccc2[N+](=O)[O-])C=C1 (centres undefined) [1-(2-nitrophenyl)-3-[[(E)-(6-oxo-4-propoxy-1-cyclohexa-2,4-dienylidene)methyl]amino]thiourea] |
| 6.69 | Cc1[nH]n(-c2ccccc2)c(=O)c1CN=Nc1nncc(-c2ccccc2)n1 [(4E)-5-methyl-2-phenyl-4-[[(5-phenyl-1,2,4-triazin-3-yl)hydrazo]methylidene]-3-pyrazolone] |
